This note sets out measurements from patent publication US20190298743A1, “TREATMENT OF PAIN” (Takeda Pharmaceutical Company Limited, priority 2016, published 2019).

For one experiment, the system named is DRG neurons. In words: Perforated patch-clamp excitability (rheobase) of isolated DRG neurons. Type of experiment: cell-based, mice. Conditions: 0 min and 30 min after washing. The method, then:
To assess the effects of proteases on excitability of nociceptors, DRG neurons were preincubated with trypsin, cathepsin S, elastase or vehicle (control), washed, and rheobase and action potential discharge at a current of twice rheobase were measured at 0 min or 30 min after washing.
DRG (T9-T13) from C57BL/6 mice were digested by incubation in collagenase (1 mg/ml, Worthington Biochemical, Lakewood, N.J.) and dispase (4 mg/ml, Roche Life Science, Indianapolis, Ind.) for 10 min at 37° C., and were dispersed by trituration with a fire-polished Pasteur pipette. Cells were plated onto coverslips coated with laminin (0.017 mg/ml) and poly-D-lysine (2 mg/ml) in 24-well plates. Neurons were cultured in F12 medium (Cat N668, Lot RNBD5333, Sigma-Aldrich, St Louis, Mo. USA) containing 10% fetal calf serum, with penicillin and streptomycin and maintained at 37° C. in a humidified atmosphere of 95% air and 5% CO2 until retrieval (16 h) for electrophysiological studies.
Neuronal excitability was assessed by perforated patch-clamp recordings with amphotericin B (240 μg/ml) from small diameter neurons (<30 pF capacitance) in current clamp mode at room temperature. Only neurons with resting membrane potentials more negative than −40 mV were analyzed. Changes in excitability were quantified by measuring rheobase (minimum current to fire action potential) and numbers of action potentials discharged at twice rheobase. Recordings were made using Axopatch 200B amplifiers, digitized by Digidata 1322A and stored and processed using pClamp 10.1 software (Molecular Devices, Sunnyvale, Calif.). The recording chamber was continuously perfused with external solution at 2 ml/min. External solution was (mM): 140 NaCl, 5 KCl, 10 HEPES, 10 D-glucose, 1 MgCl2, 2 CaCl2; pH to 7.4 with 3 M NaOH. Pipette solution was (mM): 110 K-gluconate, 30 KCl, 10 HEPES, 1 MgCl2, 2 CaCl2; pH 7.25 with 1 M KOH.
DRG neurons were pre-incubated with vehicle (control) or proteases using conditions that we have reported to cause robust hyperexcitability: trypsin (50 nM, 10 min), elastase (10 U/ml, 390 nM, 30 min), Cat-S (500 nM, 60 min). Neurons were then washed and maintained in protease-free F12 medium. Neuronal excitability was assessed 0 or 30 min after washing. In some experiments, neurons were incubated with vehicle (0.3% DMSO), Dyngo4a (30 μM) or PitStop2 (15 μM) for 30 min before and during incubation with proteases.
Results are expressed as mean±SE. Two way ANOVA and post hoc Tukey's tests were used to analyze the data.

The subject of experiment [1] is PAR2. Put plainly: Whole population FRET with cytosolic ERK sensor CytoEKAR in HEK293 cells. Type of experiment: cell-based. How it is done:
(§1) Förster Resonance Energy Transfer (FRET) was used to characterise PAR2 mediated ERK within different subcellular compartments upon stimulation with different agonists. The assays were repeated after employing pharmacological and genetic approaches shown to abolish receptor internalisation to assess the role of internalisation in generating compartmentalised signals.
(§2) After achieving ˜50% confluency within 10 cm dishes HEK293 cells were transfected with 2-5 μg of PAR2 with N-terminal HA epitope tag (PAR2-HA) and 2-5 μg of desired FRET biosensor, using PEI as a transfection agent. 24 hours after transfection, cells were seeded into poly-D-lysine coated black 96 well isoplates. FRET was assessed 48 hours after cell plating, following overnight serum restriction. […] When used endocytic inhibitors were diluted in 1×HBSS+1% dimethyl sulfoxide (DMSO). Following the replacement of culture media cells were allowed to equilibrate at 37° C. for 30 minutes. FRET was then determined using a PHERAstar FS microplate reader (BMG LabTech, Offenburg, Germany), cells were sequentially excited at 430 nm with emissions being read at 550 nm and 490 nm. A 4 minute baseline was obtained before the addition of vehicle (1×HBSS+/−1% DMSO), protease or 1 μM PDBu (serving as a positive control). Measurements were then continued every minute for a further 30 minutes. FRET ratios were then calculated and corrected to baseline and vehicle treatments in Microsoft Excel 2013.

Experiment [2] concerns PAR2. Put plainly: FRET biosensors for compartmentalised cAMP, PKC and ERK signals in HEK cells and rat dorsal root ganglia neurons. Type of experiment: cell-based. How it is done:
(§3) The contribution of endocytosis of protease-activated receptor-2 (PAR2) was evaluated for generation of signals in subcellular compartments that mediate protease-evoked sensitization of nociceptors. Bioluminescence resonance energy transfer (BRET) was used to assess the proximity of PAR2 to resident proteins of the plasma membrane (KRas) and endosomes (Rab5a) in HEK cells. […] Förster resonance energy transfer (FRET) biosensors targeted to the plasma membrane, cytosol or nucleus were used to examine the capacity of proteases to generate signals in subcellular compartments of HEK cells and rat dorsal root ganglia neurons. […] Dynamin inhibitor Dyngo4a, Clathrin inhibitor Pitstop2 and dominant negative β-arrestin inhibited trypsin-evoked endocytosis of PAR2, and prevented trypsin-evoked activation of cytosolic cAMP and PKC and nuclear ERK. […] To examine the link between PAR2 endocytosis, compartmentalized signaling and nociceptor sensitization, perforated patch clamp recordings were made from mouse dorsal root ganglia neurons. […] The effects of proteases on excitability were blocked by the PAR2 antagonist GB88. Thus, canonical and biased proteases sensitize nociceptors by distinct mechanisms. For canonical agonists, PAR2 endocytosis generates compartmentalized signals subcellular compartments that underlie sustained excitability of nociceptive neurons. Inhibiting endosomal signaling of PAR2 may provide a novel method of treating protease-evoked pain.

Experiment [3] in a line: Protease-evoked mechanical hyperalgesia, von Frey paw withdrawal. Conditions: ipsilateral paw. Type of experiment: in vivo, mice. How it is done:
(§4) Immediately before experiments the mice were acclimatized to the experimental apparatus, room and investigator for 1-2 h on 2 successive days. Mechanical nociceptive responses were evaluated by paw withdrawal to stimulation of the plantar surface of the hind-paw with calibrated von Frey filaments. von Frey scores were measured in triplicate to establish a baseline for each animal on the day before experiments. Paw edema was estimated by measuring the thickness of the hindpaw using digital calipers before and after treatments. Mice were […] with 5% isoflurane for intraplantar injections. Dyngo4a (50 μM), PitStop2 (50 μM) or vehicle (0.2% DMSO in 0.9% NaCl) (all 10 μl) were injected into the left hindpaw. After 30 min, trypsin (10 nM), Cat-S (2.5 μM) or elastase (30 U) (all 10 μl) were injected into the same left hindpaw. von Frey scores (left and right paws) and paw thickness (left paw) were measured hourly for up to 4 h after protease injection. Investigators were blinded to the test agents.

Experiment [4] has as its system PAR2. In words: BRET receptor trafficking, PAR2-RLuc8 with plasma membrane marker RIT-venus in HEK293 cells. Type of experiment: cell-based. The method, then:
(§5) Bret studies of receptor trafficking were conducted to quantify PAR2 internalisation (RIT-venus) and trafficking to early endosomes (Rab5a-venus) upon stimulation with different agonists.
(§6) After achieving ˜50% confluency within 10 cm dishes HEK293 cells were transiently transfected with 1 μg PAR2-RLuc8 and 4 μg of either RIT-venus or Rab5a-venus using PEI as a transfection agent. 24 hours post transfection, cells were seeded into poly-D-lysine coated 96-well isoplates. […] When used endocytic inhibitors were diluted in 1×HBSS+1% dimethyl sulfoxide (DMSO). Following the replacement of culture media cells were allowed to equilibrate at 37° C. for 30 minutes before the addition of colenterazine H [5 μM]. After a further 5 minute incubation BRET was assessed using a LUMIstar Omega microplate reader (BMG LabTech, Offenburg, Germany), with luminescence being read at 535 nm and 475 nm. A 4 minute baseline was obtained before the addition of vehicle (1×HBSS+/−1% DMSO) or protease, measurements were then continued for a further 30 minutes. BRET ratios were calculated using LUMIstar MARS analysis software and then corrected to baseline and vehicle treatments in Microsoft Excel 2013.

Experiment [5] concerns PAR2. Put plainly: BRET proximity of PAR2 to KRas (plasma membrane) and Rab5a (endosomes) in HEK cells. Type of experiment: cell-based. The following applies: HEK cells. How it is done:
as §3

For experiment [6], the system named is PAR2. Put plainly: Whole population FRET with nuclear ERK sensor NucEKAR in HEK293 cells. Type of experiment: cell-based. The method, then:
as §1
as §2, with “Measurements were then continued every minute for a further 30 minutes.” left out

Experiment [7] relates to PAR2. In words: BRET receptor trafficking, PAR2-RLuc8 with early endosomal marker Rab5a-venus in HEK293 cells. Type of experiment: cell-based. The method, then: as §5, §6
Experiment [8] in a line: Protease-evoked paw edema, hindpaw thickness. Type of experiment: in vivo, mice. The following applies: ipsilateral paw. How it is done: as §4

For the substance trypsin, the “Effect of protease on excitability (rheobase) of DRG neurons” value with DRG neurons is “immediate increase in excitability”. The “Ability of agonist to produce ERK signals within the cytoplasm” value in the experiment on PAR2 [1] is listed as “able to produce ERK signals”. The “Signals generated by protease in subcellular compartments” value in the experiment with PAR2 [2] is “activated cAMP and protein kinase C (PKC) at the plasma membrane and in the cytosol, and extracellular signal regulate kinase (ERK) in the nucleus and cytosol”. In addition, the “Mechanical hyperalgesia after intraplantar injection of protease” value in experiment [3] is given as “caused mechanical hyperalgesia of the ipsilateral paw that was sustained for at least 4 h”. Also, the EC50 in the experiment on PAR2 [4] (RIT-venus, CRC from AUC data, read-out: EC50 of trypsin induced internalisation of PAR2, plasma membrane marker) is approximately 2.8 nM; in the experiment with PAR2 [7] (Rab5a-venus, CRC from AUC data, read-out: EC50 of trypsin induced internalisation of PAR2, early endosomal marker) it was approximately 2.8 nM. Moreover, the “Change in BRET between PAR2 and plasma membrane marker upon agonist stimulation” value with PAR2 [4] (trypsin 10 nM) was “time dependent decrease in BRET”. The “PAR2 endocytosis induced by agonist” value in the experiment with PAR2 [5] was “increases BRET between PAR2 and Rab5a and decreases BRET between PAR2 and KRas”. Besides, the “Ability of agonist to produce ERK signals within the nucleus” value with PAR2 [6] is “able to produce ERK signals”. The “Change in BRET between PAR2 and early endosomal marker upon agonist stimulation” value in the experiment with PAR2 [7] (trypsin 10 nM) was “increase in BRET”. Besides, the “Edema after intraplantar injection of protease” value in [8] was “edema of the ipsilateral paw that was maximal after 4 h”.
